Here are results for 16 compounds from patent US7812183B2, “Benzopyran derivatives as potassium channel openers” (Janssen Pharmaceutica NV, priority 2005, dated 2010).

Molecules are shown by their SMILES. pEC50: −log10 of the molar value.

T1 sequence (O60706 1-1549 isoform O60706-2): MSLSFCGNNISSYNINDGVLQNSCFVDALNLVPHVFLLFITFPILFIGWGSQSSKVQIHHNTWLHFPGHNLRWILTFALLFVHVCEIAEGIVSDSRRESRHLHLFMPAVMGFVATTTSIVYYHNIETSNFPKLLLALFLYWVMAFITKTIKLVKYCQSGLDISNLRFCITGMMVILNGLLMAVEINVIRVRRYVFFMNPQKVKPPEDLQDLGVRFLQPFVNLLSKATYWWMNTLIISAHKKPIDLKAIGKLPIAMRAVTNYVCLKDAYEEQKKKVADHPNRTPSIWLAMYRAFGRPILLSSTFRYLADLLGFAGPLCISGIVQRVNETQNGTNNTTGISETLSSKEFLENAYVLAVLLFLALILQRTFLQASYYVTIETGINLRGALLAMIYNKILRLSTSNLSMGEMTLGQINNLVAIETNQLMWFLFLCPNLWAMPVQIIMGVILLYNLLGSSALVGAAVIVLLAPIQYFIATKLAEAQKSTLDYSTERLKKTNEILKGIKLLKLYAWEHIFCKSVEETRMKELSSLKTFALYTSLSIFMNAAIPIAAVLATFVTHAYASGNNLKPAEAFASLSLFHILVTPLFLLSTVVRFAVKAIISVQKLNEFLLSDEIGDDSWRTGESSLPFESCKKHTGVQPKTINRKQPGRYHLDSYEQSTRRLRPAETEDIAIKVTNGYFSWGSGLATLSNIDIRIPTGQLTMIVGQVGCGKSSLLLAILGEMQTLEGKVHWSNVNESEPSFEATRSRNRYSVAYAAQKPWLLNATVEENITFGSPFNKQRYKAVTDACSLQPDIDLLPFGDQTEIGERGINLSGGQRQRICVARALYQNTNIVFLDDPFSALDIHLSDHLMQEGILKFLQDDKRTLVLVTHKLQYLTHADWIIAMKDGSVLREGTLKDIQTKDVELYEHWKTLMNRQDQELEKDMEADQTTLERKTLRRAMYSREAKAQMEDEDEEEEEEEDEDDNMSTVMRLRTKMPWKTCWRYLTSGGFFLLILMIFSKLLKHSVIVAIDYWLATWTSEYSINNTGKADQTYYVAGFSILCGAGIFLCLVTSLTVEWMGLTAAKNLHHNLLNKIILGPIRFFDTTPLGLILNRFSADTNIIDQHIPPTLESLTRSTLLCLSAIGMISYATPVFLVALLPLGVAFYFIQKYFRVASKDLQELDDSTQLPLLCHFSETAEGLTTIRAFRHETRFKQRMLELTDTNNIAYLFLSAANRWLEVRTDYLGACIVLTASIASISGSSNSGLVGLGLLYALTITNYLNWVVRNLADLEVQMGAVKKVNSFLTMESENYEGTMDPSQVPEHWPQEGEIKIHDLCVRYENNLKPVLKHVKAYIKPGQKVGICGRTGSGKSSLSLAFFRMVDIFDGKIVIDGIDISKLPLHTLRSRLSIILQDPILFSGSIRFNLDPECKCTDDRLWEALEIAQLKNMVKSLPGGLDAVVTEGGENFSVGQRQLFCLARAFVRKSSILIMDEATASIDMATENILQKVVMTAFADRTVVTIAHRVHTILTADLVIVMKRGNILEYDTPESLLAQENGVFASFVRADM
T1 sequence (Q14654 whole entry): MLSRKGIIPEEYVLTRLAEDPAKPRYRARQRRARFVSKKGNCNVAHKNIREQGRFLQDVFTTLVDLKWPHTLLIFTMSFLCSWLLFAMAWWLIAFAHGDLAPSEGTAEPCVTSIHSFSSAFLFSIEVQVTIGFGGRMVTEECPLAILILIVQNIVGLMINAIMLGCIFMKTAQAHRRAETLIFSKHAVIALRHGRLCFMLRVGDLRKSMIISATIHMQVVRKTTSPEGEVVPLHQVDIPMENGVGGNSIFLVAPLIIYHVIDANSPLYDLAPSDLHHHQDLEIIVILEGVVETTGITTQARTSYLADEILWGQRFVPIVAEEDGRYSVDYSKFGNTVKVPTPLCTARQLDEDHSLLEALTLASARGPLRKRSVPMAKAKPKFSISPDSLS

This test addresses T1, KATP channels (Homo sapiens, UniProt O60706+Q14654).
T1 construct: TE671 human medulloblastoma cells were obtained from ATCC; host or cells: TE671 human medulloblastoma cells
Briefly: Potassium Channel Assay (FLIPR membrane potential, TE671 cells). The class given is cell-based. To be noted: TE671 human medulloblastoma cells, Membrane Potential Assay Dye, room temperature, hyperpolarization from KATP channel opening. Summed up: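 Human medulloblastoma cells plated day before at 50K/well, loaded 15–30 min with membrane potential dye in HEPES buffer (2 mM KCl, 2 mM CaCl2, 5 mM glucose) at room temperature. Compound-induced hyperpolarization (fluorescence decrease) monitored 3 min; 5 μM glyburide then added to confirm KATP opener specificity.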
Consider `CC1(C)Oc2ccc(C#N)cc2[C@@H](Nc2noc3cc(Cl)ccc23)[C@@H]1O` [Compound 67, (3S,4R)-4-(6-Chloro-benzo[d]isoxazol-3-ylamino)-3-hydroxy-2,2-dimethyl-chroman-6-carbonitrile], for which the pEC50 (usually −log10 of the EC50, conventionally taken in molar units) is 5.21.

`COc1ccc(S(=O)(=O)c2ccc3c(c2)[C@@H](n2oc4cc(Cl)ccc4c2=O)[C@H](O)C(C)(C)O3)cc1` [Compound 98, 6-Chloro-2-[3S-hydroxy-6-(4-methoxy-benzenesulfonyl)-2,2-dimethyl-chroman-4-yl]-4R-benzo[d]isoxazol-3-one] had a pEC50 of 5.13.

Regarding `CC1(C)Oc2ccc(C#N)cc2[C@@H](n2sc3ccccc3c2=O)[C@@H]1O` [Compound 30], the pEC50 is 4.85.

`CC1(C)Oc2ccc(C#N)cc2[C@@H](Nc2noc3ccc(Cl)cc23)[C@@H]1O` [Compound 39, (3S,4R)-4-(5-Chloro-benzo[d]isoxazol-3-ylamino)-3-hydroxy-2,2-dimethyl-chroman-6-carbonitrile] showed a pEC50 of 6.21.

Turning to `CC1(C)Oc2ccc(S(=O)(=O)N3CCCCC3)cc2[C@@H](n2oc3cc(Cl)ccc3c2=O)[C@@H]1O` [Compound 84, 6-Chloro-2-[3S-hydroxy-2,2-dimethyl-6-(piperidine-1-sulfonyl)-chroman-4-yl]-R-benzo[d]isoxazol-3-one], the pEC50 was 5.97.

The compound `CC1(C)Oc2ccc(C#N)cc2[C@@H](n2nc(N)c3cc(Cl)ccc32)[C@@H]1O` [Compound 33, 4R-(3-Amino-5-chloro-indazol-1-yl)-3S-hydroxy-2,2-dimethyl-chroman-6-carbonitrile] gave a pEC50 of 5.16.

In the case of `CC1(C)Oc2ccc(Cl)cc2[C@@H](Oc2ccn(-c3ccccc3)n2)[C@@H]1O` (racemic) [Compound 60, 6-Chloro-2,2-dimethyl-4-(1-phenyl-1H-pyrazol-3-yloxy)-chroman-3-ol], the pEC50 is below 4.52.

For `CC1(C)Oc2ccc(C#N)cc2[C@@H](Oc2noc3ccccc23)[C@@H]1O` [Compound 23, (3S,4R)-4-(Benzo[d]isoxazol-3-yloxy)-3-hydroxy-2,2-dimethyl-chroman-6-carbonitrile], the pEC50 was 5.16.

`CCN(CC)C(=O)c1ccc2c(c1)[C@@H](Oc1noc3cc(Cl)ccc13)[C@H](O)C(C)(C)O2` [Compound 90, 4R-(6-Chloro-benzo[d]isoxazol-3-yloxy)-3S-hydroxy-2,2-dimethyl-chroman-6-carboxylic acid diethylamide] gave a pEC50 below 4.52.

Consider `CC1(C)Oc2ccc(C#N)cc2[C@@H](Oc2ccc(-c3ccccc3)nn2)[C@@H]1O` (racemic) [Compound 52, 3-Hydroxy-2,2-dimethyl-4-(6-phenyl-pyridazin-3-yloxy)-chroman-6-carbonitrile], for which the pEC50 is 5.41.

As to `CC1(C)Oc2ccc(C#N)cc2[C@@H](N2CCN(c3ccc([N+](=O)[O-])cc3)CC2)[C@@H]1O` (racemic) [Compound 51, 3-Hydroxy-2,2-dimethyl-4-[4-(4-nitro-phenyl)-piperazin-1-yl]-chroman-6-carbonitrile], the pEC50 was below 4.52.

Compound `CC1(C)Oc2ccncc2[C@@H](Nc2nc3cc(Cl)ccc3o2)[C@@H]1O` (racemic) [Compound 107, 4-(5-Chloro-benzoxazol-2-ylamino)-2,2-dimethyl-3,4-dihydro-2H-pyrano[3,2-c]pyridin-3-ol] showed a pEC50 below 4.52.

The compound `CC1(C)Oc2ccc(C#N)cc2[C@@H](Oc2noc3ccc(Cl)cc23)[C@@H]1O` [Compound 38, (3S,4R)-4-(5-Chloro-benzo[d]isoxazol-3-yloxy)-3-hydroxy-2,2-dimethyl-chroman-6-carbonitrile] showed a pEC50 of 5.15.

For the compound `CC1(C)C=C(n2nc(-c3ccc(Cl)cc3)ccc2=O)c2cc(C#N)ccc2O1` [Compound 57, 4-[3-(4-Chloro-phenyl)-6-oxo-6H-pyridazin-1-yl]-2,2-dimethyl-2H-chromene-6-carbonitrile], the pEC50 was 4.70.

Turning to `CC1(C)Oc2ccc(C#N)cc2[C@@H](Oc2ccn(-c3ccc(Cl)cc3)n2)[C@@H]1O` (racemic) [Compound 55, 4-[1-(4-Chloro-phenyl)-1H-pyrazol-3-yloxy]-3-hydroxy-2,2-dimethyl-chroman-6-carbonitrile], the negative-log EC50 (pEC50) is 5.05.

With `CC1(C)Oc2ccc(C#N)cc2[C@@H](n2nc(N)c3ccc(Br)cc32)[C@@H]1O` [Compound 35, 4R-(3-Amino-6-bromo-indazol-1-yl)-3S-hydroxy-2,2-dimethyl-chroman-6-carbonitrile], the pEC50 is 5.36.
